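48-hour exposure; five concentrations; linearly interpolated endpoints. At the GI50, growth is halved.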 Activity calls are given as the source filed them. Rule as the data show it: active = GI50 up to about 1.1 µM and inactive = higher.
Key:
Test in all cases: NCI tumour cell line growth inhibition, 48 h
786-0 = system: 786-0
A498 = system: A498
A549 = system: A549
ACHN = system: ACHN
CAKI-1 = system: CAKI-1
CCRF-CEM = system: CCRF-CEM
COLO 205 = system: COLO 205
DLD-1 = system: DLD-1
DMS-114 = system: DMS-114
DMS-273 = system: DMS-273
EKVX = system: EKVX
HCC 2998 = system: HCC 2998
HCT-116 = system: HCT-116
HCT-15 = system: HCT-15
HL-60 = system: HL-60
HOP-18 = system: HOP-18
HOP-62 = system: HOP-62
HOP-92 = system: HOP-92
HT-29 = system: HT-29
IGROV-1 = system: IGROV-1
K562 = system: K562
KM-20L2 = system: KM-20L2
KM12 = system: KM12
LOX IMVI = system: LOX IMVI
LXFL 529 = system: LXFL 529
M14 = system: M14
M19-MEL = system: M19-MEL
MOLT-4 = system: MOLT-4
Malme-3M = system: Malme-3M
NCI-H226 = system: NCI-H226
NCI-H23 = system: NCI-H23
NCI-H460 = system: NCI-H460
NCI-H522 = system: NCI-H522
OVCAR-3 = system: OVCAR-3
OVCAR-4 = system: OVCAR-4
OVCAR-5 = system: OVCAR-5
OVCAR-8 = system: OVCAR-8
RPMI-8226 = system: RPMI-8226
RXF 393 = system: RXF 393
RXF 631 = system: RXF 631
SF-268 = system: SF-268
SF-295 = system: SF-295
SF-539 = system: SF-539
SK-MEL-28 = system: SK-MEL-28
SK-MEL-2 = system: SK-MEL-2
SK-MEL-5 = system: SK-MEL-5
SK-OV-3 = system: SK-OV-3
SN12C = system: SN12C
SNB-19 = system: SNB-19
SNB-75 = system: SNB-75
SNB-78 = system: SNB-78
SR = system: SR
SW-620 = system: SW-620
TK-10 = system: TK-10
U-251 = system: U-251
UACC-257 = system: UACC-257
UACC-62 = system: UACC-62
UO-31 = system: UO-31
XF498 = system: XF498

Q: With `CCCCCCCC(=O)OCC1OC(OC)C(NC(=O)N(CCCl)N=O)C(O)C1O` (centres undefined) as the compound, how does the GI50 (786-0) read?
A: 3.92 µM (inactive)

Q: And the GI50 (A498)?
A: 21.5 µM (inactive)

Q: And the GI50 (A549)?
A: 9.91 µM (inactive)

Q: What about the GI50 (ACHN) of the same compound?
A: 7.18 µM (inactive)

Q: And the GI50 (CAKI-1)?
A: 9.08 µM (inactive)

Q: What about the GI50 (CCRF-CEM) of the same compound?
A: 4.06 µM (inactive)

Q: And the GI50 (COLO 205)?
A: 14.7 µM (inactive)

Q: What about the GI50 (DLD-1) of the same compound?
A: 11.9 µM (inactive)

Q: And the GI50 (DMS-114)?
A: 11.9 µM (inactive)

Q: And the GI50 (DMS-273)?
A: 2.9 µM (inactive)

Q: What about the GI50 (EKVX) of the same compound?
A: 30.6 µM (inactive)

Q: And the GI50 (HCC 2998)?
A: 14.3 µM (inactive)

Q: What about the GI50 (HCT-116) of the same compound?
A: 3.22 µM (inactive)

Q: What about the GI50 (HCT-15) of the same compound?
A: 3.27 µM

Q: What about the GI50 (HL-60) of the same compound?
A: 4.14 µM (inactive)

Q: What about the GI50 (HOP-18) of the same compound?
A: 18.5 µM (inactive)

Q: And the GI50 (HOP-62)?
A: 4.27 µM (inactive)

Q: And the GI50 (HOP-92)?
A: 1.36 µM (inactive)

Q: What about the GI50 (HT-29) of the same compound?
A: 15 µM (inactive)

Q: And the GI50 (IGROV-1)?
A: 21.7 µM (inactive)

Q: What about the GI50 (K562) of the same compound?
A: 12.4 µM (inactive)

Q: What about the GI50 (KM-20L2) of the same compound?
A: 20.8 µM (inactive)

Q: What about the GI50 (KM12) of the same compound?
A: 9.89 µM (inactive)

Q: What about the GI50 (LOX IMVI) of the same compound?
A: 0.908 µM (active)

Q: And the GI50 (LXFL 529)?
A: 16.9 µM (inactive)

Q: And the GI50 (M14)?
A: 8.41 µM (inactive)

Q: And the GI50 (M19-MEL)?
A: 17.9 µM (inactive)

Q: What about the GI50 (MOLT-4) of the same compound?
A: 3.05 µM (inactive)

Q: What about the GI50 (Malme-3M) of the same compound?
A: 13.3 µM (inactive)

Q: And the GI50 (NCI-H226)?
A: 15.7 µM (inactive)

Q: What about the GI50 (NCI-H23) of the same compound?
A: 8.28 µM (inactive)

Q: What about the GI50 (NCI-H460) of the same compound?
A: 3.46 µM (inactive)

Q: And the GI50 (NCI-H522)?
A: 11.2 µM (inactive)

Q: What about the GI50 (OVCAR-3) of the same compound?
A: 19.7 µM (inactive)

Q: What about the GI50 (OVCAR-4) of the same compound?
A: > 54.6 µM (inactive)

Q: What about the GI50 (OVCAR-5) of the same compound?
A: 26.4 µM (inactive)

Q: And the GI50 (OVCAR-8)?
A: 18.2 µM (inactive)

Q: And the GI50 (RPMI-8226)?
A: 16.3 µM (inactive)

Q: And the GI50 (RXF 393)?
A: 16.1 µM (inactive)

Q: What about the GI50 (RXF 631) of the same compound?
A: 2.48 µM (inactive)

Q: And the GI50 (SF-268)?
A: 2.15 µM (inactive)

Q: What about the GI50 (SF-295) of the same compound?
A: 4.07 µM (inactive)

Q: What about the GI50 (SF-539) of the same compound?
A: 2.64 µM (inactive)

Q: And the GI50 (SK-MEL-28)?
A: 33.3 µM (inactive)

Q: What about the GI50 (SK-MEL-2) of the same compound?
A: 17.1 µM (inactive)

Q: What about the GI50 (SK-MEL-5) of the same compound?
A: 15.1 µM (inactive)

Q: And the GI50 (SK-OV-3)?
A: 28.5 µM (inactive)

Q: What about the GI50 (SN12C) of the same compound?
A: 7.67 µM (inactive)

Q: What about the GI50 (SNB-19) of the same compound?
A: 14.5 µM (inactive)

Q: What about the GI50 (SNB-75) of the same compound?
A: 4.72 µM (inactive)

Q: What about the GI50 (SNB-78) of the same compound?
A: 22.9 µM (inactive)

Q: What about the GI50 (SR) of the same compound?
A: 0.272 µM (active)

Q: And the GI50 (SW-620)?
A: 4.17 µM (inactive)

Q: What about the GI50 (TK-10) of the same compound?
A: 18.5 µM (inactive)

Q: What about the GI50 (U-251) of the same compound?
A: 4.91 µM (inactive)

Q: And the GI50 (UACC-257)?
A: 16.1 µM (inactive)

Q: And the GI50 (UACC-62)?
A: 1.86 µM (inactive)

Q: What about the GI50 (UO-31) of the same compound?
A: 17.6 µM (inactive)

Q: And the GI50 (XF498)?
A: 10.2 µM (inactive)
